Test results: patent publication US11731946B2, “Broad spectrum antivirulence, anti-persistence compounds” (priority 2017, dated 2023)
Where two headings read alike, the source gives them in different places.

Tests used:
Format in all cases: cell-based, P. aeruginosa
MvfR regulon [1] = assay: pqsA gene expression (pqsA-GFP reporter); details: Pseudomonas aeruginosa; for activity at 50 µM: read-out: pqsA @50 uM (%), compound at 50 uM; for activity at 10 µM: read-out: pqsA @10 uM (%), compound at 10 uM
Procedure: Experiments were performed to identify compounds that inhibit the MvfR regulon without altering growth, ultimately attenuating P. aeruginosa infection. MvfR is a LysR-type transcriptional regulator that directs HAQs synthesis, including that of its ligands, 4-hydroxy-2-heptylquinoline (HHQ) and 3,4-dihydroxy-2-heptylquinoline (PQS).
MvfR promotes the production of HAQs by binding to and activating the pqs operon, which encodes enzymes for HAQ synthesis. Anthranilic acid (AA), derived from the phnAB, kynABU, and trpEG pathways, is the precursor for HAQs. pqsA encodes an anthranilate-coenzyme A ligase, which activates anthranilic acid and catalyzes the first committed step to HAQ production. The exact roles of PqsB and PqsC are unknown, though both show homology to acyl-carrier-proteins and both are required for HHQ and PQS production. […] The final gene of the operon, pqsE encodes for a putative hydrolase, and while the protein is not required for the synthesis of HAQs, it is necessary for pyocyanin production.
Nanomolar levels of most of these MvfR antagonists impeded the activity of MvfR and in consequence the MvfR virulence regulated ACRP functions, including: (1) the production of the important pro-acute P. aeruginosa virulence factor pyocyanin (see e.g., FIG. 9A) the efficacy of two of these potent inhibitors, D57 and D88, was also confirmed by testing many different MDR P. aeruginosa clinical isolates (see e.g., FIG. 11A-11B), providing further confidence of their inhibitory potency; (2) the expression of the genes that encode the enzymes catalyzing the synthesis of both pro-acute and pro-persistence MvfR-regulated virulence molecules, 4-hydroxyl-2-alkyl-quinolines (HAQs) and 2-aminoacetophenon (2-AA), as assessed by pqsAGFP reporter gene expression (see e.g., FIG. 9B) and HAQ production showing the levels of MvfR inducers/ligands HHQ and PQS as well as of the molecules critical for biofilm and Antibiotic tolerant/persiters cells formation HQNO and 2-AA (see e.g., FIG. 9C); (3) AT/P cell formation (see e.g., FIGS. 11A, 12A); (4) biofilm formation (see e.g., FIG. 12B); and (5) biofilm dispersal of preformed biofilm by potentiating antibiotic action (see e.g., FIG. 11B).

MvfR regulon [2] = assay: LC/MS quantification of HAQs and related molecules in bacterial culture supernatants; details: Pseudomonas aeruginosa
MvfR regulon [3] = assay: Quantification of pyocyanin (OD520nm of chloroform-extracted cultures); details: for activity at 50 µM: read-out: pyocyanin @50 uM (%), compound at 50 uM; for activity at 1 µM: read-out: pyocyanin @1 uM (%), compound at 1 uM; for activity at 10 µM: read-out: pyocyanin @10 uM (%), compound at 10 uM
[4] = Pseudomonas aeruginosa, read-out: IC50 pyocyanin (μM)

Row | Compound | activity at 50 µM (MvfR regulon [1]) [%] | activity at 50 µM (MvfR regulon [2]; read-out: 2-AA @50 uM) [%] | activity at 50 µM (MvfR regulon [2]; read-out: DHQ @50 uM) [%] | activity at 50 µM (MvfR regulon [2]; read-out: HHQ @50 uM (%)) [%] | activity at 50 µM (MvfR regulon [2]; read-out: HQNO @50 uM (%)) [%] | activity at 50 µM (MvfR regulon [2]; read-out: PQS @50 uM (%)) [%] | activity at 50 µM (MvfR regulon [3]; Pseudomonas aeruginosa) [%] | activity at 10 µM (MvfR regulon [1]) [%] | further results
1 | Cc1cc(F)ccc1CCNC(=O)c1ccc(C#N)cc1 [Compound 51] | 91.4 | 106 | 95.5 | 96.2 | 102 | 93.5 | 110 | – | activity at 50 µM (MvfR regulon [2]; read-out: AA @50 uM): 68%
2 | Cc1ccccc1N(C)CC(=O)Nc1ccc(C#N)cc1 [Compound 12] | 95.7 | 63.1 | 51.5 | 73.4 | 91.2 | 95.5 | 96 | – | –
3 | N#Cc1ccc(NC(=S)CC(=S)Nc2ccc(F)cc2)cc1 [Compound 60] | 80.7 | 104 | 82.9 | 66.6 | 77 | 83.6 | 106 | 117 | activity at 50 µM (MvfR regulon [2]; read-out: AA @50 uM): 28.2%
4 | N#Cc1ccc(NC(=O)CCC(=O)Nc2ccc(F)cc2)cc1 [Compound 61] | 77.8 | 93.6 | 93 | 79 | 85.5 | 87.2 | 99 | 112 | activity at 50 µM (MvfR regulon [2]; read-out: AA @50 uM): 42.4%
5 | Cc1cc(F)ccc1NCC(=O)Nc1ccc(C(F)(F)F)cc1 [Compound 3] | 46 | 68.3 | 81.5 | 110 | 86.5 | 93.4 | 60.9 | – | –
6 | N#Cc1ccc(NC(=O)CC(=O)Nc2ccc(C(=O)C(F)(F)F)cc2)cc1 [Compound 64] | 102 | 140 | 88.8 | 107 | 103 | 104 | 84 | 107 | activity at 50 µM (MvfR regulon [2]; read-out: AA @50 uM): 176%
7 | N#Cc1ccc(NC(=O)CNc2ccc(F)cc2)cc1 [Compound 9] | 63.2 | 112 | – | 87.1 | 108 | 124 | 85.6 | – | –
8 | Cc1cc(F)ccc1OCC(=O)Nc1ccc(C#N)cc1 [Compound 6] | 98 | 63.4 | 82.7 | 114 | 111 | 114 | 98.4 | – | –
9 | N#Cc1ccc(NC(=O)CCNc2ccc(F)cc2F)cc1 [Compound 47] | 74.3 | 100 | 99.3 | 109 | 101 | 108 | 88.3 | – | activity at 50 µM (MvfR regulon [2]; read-out: AA @50 uM): 129%
10 | Cc1ccccc1NCC(=O)Nc1ccc(C#N)cc1 [Compound 10] | 92.9 | 63.9 | 59.5 | 76.4 | 92.5 | 124 | 94.3 | – | –
11 | N#Cc1ccc(NC(=O)C(=O)Nc2ccc(F)cc2)cc1 [Compound 49] | 96.9 | 103 | 105 | 97.9 | 99.5 | 110 | 106 | – | activity at 50 µM (MvfR regulon [2]; read-out: AA @50 uM): 89.8%
12 | N#Cc1ccc(NC(=O)CC(=O)Nc2ccc(N)cc2)cc1 [Compound 67] | 89.7 | 101 | 103 | 92.3 | 91.7 | 86.4 | 87.2 | 97.9 | activity at 50 µM (MvfR regulon [2]; read-out: AA @50 uM): 115%
13 | N#Cc1ccc(NC(=O)C(F)C(=O)Nc2ccc(C#N)cc2)cc1 [Compound 111] | 41.8 | – | – | – | – | – | 34 | 62.8 | activity at 1 µM (MvfR regulon [3]; Pseudomonas aeruginosa): 91.7%; activity at 10 µM (MvfR regulon [3]; Pseudomonas aeruginosa): 50.8%
14 | N#Cc1ccc(NC(=O)CC(=O)Nc2ccncc2)cc1 [Compound 100] | – | – | – | – | – | – | 81.9 | 88.9 | activity at 1 µM (MvfR regulon [3]; Pseudomonas aeruginosa): 66.3%; activity at 10 µM (MvfR regulon [3]; Pseudomonas aeruginosa): 101%
15 | O=C(CC(=O)Nc1ccc(Oc2ccccc2)cc1)Nc1ccc(I)cc1 [Compound 74] | 81.2 | – | – | – | – | – | 71.8 | 86 | –
16 | Cc1cc(NC(=O)CNc2ccc(F)cc2C)ccc1Br [Compound 43] | 47 | – | – | – | – | – | 68.5 | – | –
17 | N#Cc1ccc(NC(=O)CC(O)Cc2ccc(F)cc2)cc1 (centres unmarked) [Compound 104] | – | – | – | – | – | – | 95.3 | 97.3 | –
18 | Cc1cccc(NC(=O)CC(=O)Nc2ccc(C#N)cc2)c1 [Compound 85] | – | – | – | – | – | – | 49.7 | 84.8 | activity at 1 µM (MvfR regulon [3]; Pseudomonas aeruginosa): 94%; activity at 10 µM (MvfR regulon [3]; Pseudomonas aeruginosa): 75.3%

Row | Compound | activity at 50 µM (MvfR regulon [1]) [%] | activity at 50 µM (MvfR regulon [2]; read-out: 2-AA @50 uM) [%] | activity at 50 µM (MvfR regulon [2]; read-out: DHQ @50 uM) [%] | activity at 50 µM (MvfR regulon [2]; read-out: HHQ @50 uM (%)) [%] | activity at 50 µM (MvfR regulon [2]; read-out: HQNO @50 uM (%)) [%] | activity at 50 µM (MvfR regulon [2]; read-out: PQS @50 uM (%)) [%] | activity at 50 µM (MvfR regulon [3]; Pseudomonas aeruginosa) [%] | activity at 10 µM (MvfR regulon [1]) [%] | further results
19 | N#Cc1ccc(NC(=O)CC(=O)c2ccc(F)cc2)cc1 [Compound 91] | – | – | – | – | – | – | 77.1 | 87.4 | activity at 1 µM (MvfR regulon [3]; Pseudomonas aeruginosa): 99.2%; activity at 10 µM (MvfR regulon [3]; Pseudomonas aeruginosa): 98.3%
20 | Cc1cc(F)ccc1NCC(=O)Nc1ccc(C(=O)N(C)C)cc1 [Compound 31] | 99.8 | – | – | – | – | – | 109 | – | –
21 | N#Cc1ccc(NC(=O)CC(=O)Nc2ccc(C(F)(F)F)cc2)cc1 [Compound 84] | – | – | – | – | – | – | 6.1 | 6.98 | IC50 (MvfR regulon [3]; [4]): 0.45 µM; activity at 1 µM (MvfR regulon [3]; Pseudomonas aeruginosa): 46.8%; activity at 10 µM (MvfR regulon [3]; Pseudomonas aeruginosa): 6.98%
22 | CNC(=O)NC(=O)CNc1ccc(F)cc1C [Compound 23] | 97 | – | – | – | – | – | 101 | – | –
23 | Cc1cc(F)ccc1NCC(=O)Nc1cccc(C#N)c1 [Compound 25] | 90.2 | – | – | – | – | – | 100 | – | –
24 | N#Cc1ccc(NC(=O)C2(C(=O)Nc3ccc(C#N)cc3)CC2)cc1 [Compound 102] | – | – | – | – | – | – | 96.8 | 93.4 | –
25 | Cc1cc(F)ccc1NCC(=O)Nc1ccc(Br)cc1C [Compound 19] | 70 | – | – | – | – | – | 88.7 | – | –
26 | N#Cc1ccc(NC(=O)CC(=O)Nc2cccc(Br)c2)cc1 [Compound 56] | – | – | – | – | – | – | 17.2 | 64.2 | activity at 1 µM (MvfR regulon [3]; Pseudomonas aeruginosa): 79.9%; activity at 10 µM (MvfR regulon [3]; Pseudomonas aeruginosa): 41.4%
27 | CC(C(=O)Nc1ccc(C#N)cc1)C(=O)Nc1ccc(C#N)cc1 [Compound 95] | – | – | – | – | – | – | 7 | 45.7 | IC50 (MvfR regulon [3]; [4]): 1.35 µM; activity at 1 µM (MvfR regulon [3]; Pseudomonas aeruginosa): 93.5%; activity at 10 µM (MvfR regulon [3]; Pseudomonas aeruginosa): 23.9%
28 | N#Cc1ccc(NC(=O)CC(=O)Nc2ccc([N+](=O)[O-])cc2)cc1 [Compound 66] | – | – | – | – | – | – | – | 1.51 | pyocyanin @1 uM (%) (MvfR regulon [3]; compound at 1 uM, listed as D51P): 61.28%; pyocyanin @10 uM (%) (MvfR regulon [3]; compound at 10 uM, listed as D51P): 24.86%; pyocyanin @50 uM (%) (MvfR regulon [3]; compound at 50 uM, listed as D51P): 4.00%; IC50 (MvfR regulon [3]; read-out: IC50 pyocyanin): 0.84 µM
29 | O=C(CC(=O)Nc1ccc(C(F)(F)F)cc1)Nc1ccc(Oc2ccccc2)cc1 [Compound 113] | 28.8 | – | – | – | – | – | 42.1 | 37.2 | activity at 1 µM (MvfR regulon [3]; Pseudomonas aeruginosa): 68%; activity at 10 µM (MvfR regulon [3]; Pseudomonas aeruginosa): 60.9%
30 | N#Cc1ccc(NC(=O)CC(=O)Nc2ccc(F)cn2)cc1 [Compound 88] | – | – | – | – | – | – | 48.3 | 95.1 | activity at 1 µM (MvfR regulon [3]; Pseudomonas aeruginosa): 97%; activity at 10 µM (MvfR regulon [3]; Pseudomonas aeruginosa): 77.7%
31 | O=C(CC(=O)Nc1ccc(Oc2ccccc2)cc1)Nc1ccc(Br)cc1 [Compound 79] | 60.5 | – | – | – | – | – | 47.7 | 64.5 | –
32 | N#Cc1ccc(NC(=O)/C=C/C(=O)Nc2ccc(F)cc2)cc1 [Compound 101] | – | – | – | – | – | – | 87.8 | 96.3 | –
33 | Cc1ccc(NCC(=O)Nc2ccc(C#N)cc2)cc1F [Compound 40] | 42 | – | – | – | – | – | 59.5 | – | –
34 | CCc1ccccc1NCC(=O)Nc1ccc(C#N)cc1 [Compound 15] | 92 | – | – | – | – | – | 97.3 | – | –
35 | N#Cc1ccc(NC(=O)C[C@H](Nc2ccc(Oc3ccccc3)cc2)C(F)(F)F)cc1 (racemic) [Compound 108] | 88.4 | – | – | – | – | – | 91 | 87 | activity at 1 µM (MvfR regulon [3]; Pseudomonas aeruginosa): 91.9%; activity at 10 µM (MvfR regulon [3]; Pseudomonas aeruginosa): 76.8%
